Measurements: patent US8895738B2, “Mesoionic pyrido [1, 2-A] pyrimidine pesticides” (E I du Pont de Nemours and Company, priority 2010, dated 2014)
Structures can show the parent of a compound that is named as a salt.

Key:
Format in all cases: in vivo
[1] = test system: potato leafhopper (Empoasca fabae); assay: Test E: control of potato leafhopper on Soleil bean plant, contact and/or systemic; details: 144 h, assessed after 6 days, read-out: control efficacy: mortality; for mortality at 50 ppm: sprayed at 50 ppm; for mortality at 10 ppm: sprayed at 10 ppm; for mortality at 2 ppm: sprayed at 2 ppm
Method: For evaluating control of potato leafhopper (Empoasca fabae) through contact and/or systemic means, the test unit consisted of a small open container with a 5-6-day-old Soleil bean plant (primary leaves emerged) inside. White sand was added to the top of the soil and one of the primary leaves was excised prior to application.
Test compounds were formulated and sprayed at 250, 50, 10 and/or 2 ppm, and the tests were replicated three times as described for Test A. After spraying, the test units were allowed to dry for 1 h before they were post-infested with 5 potato leafhoppers (18-21-day-old adults). A black, screened cap was placed on the top of each test unit, and the test units were held for 6 days in a growth chamber at 24° C. and 70% relative humidity. Each test unit was then visually assessed for insect mortality.

[2] = test system: corn planthopper (Peregrinus maidis); assay: Test D: control of corn planthopper on maize plant, contact and/or systemic; details: 144 h, assessed after 6 days, read-out: control efficacy: mortality; for mortality at 50 ppm: sprayed at 50 ppm; for mortality at 10 ppm: sprayed at 10 ppm; for mortality at 250 ppm: sprayed at 250 ppm; for mortality at 2 ppm: sprayed at 2 ppm
Method: For evaluating control of corn planthopper (Peregrinus maidis) through contact and/or systemic means, the test unit consisted of a small open container with a 3-4-day-old maize plant (spike) inside. White sand was added to the top of the soil prior to application. Test compounds were formulated and sprayed at 250, 50, 10 and/or 2 ppm, and replicated three times as described for Test A. After spraying, the test units were allowed to dry for 1 h before they were post-infested with ˜15-20 nymphs (18 to 21 day old) by sprinkling them onto the sand with a salt shaker. A black, screened cap was placed on the top of each test unit, and the test units were held for 6 days in a growth chamber at 22-24° C. and 50-70% relative humidity. Each test unit was then visually assessed for insect mortality.

[3] = test system: green peach aphid (Myzus persicae); assay: Test B: control of green peach aphid on radish plant, contact and/or systemic; details: 144 h, assessed after 6 days; for mortality at 50 ppm: sprayed at 50 ppm
Text: For evaluating control of green peach aphid (Myzus persicae) through contact and/or systemic means, the test unit consisted of a small open container with a 12-15-day-old radish plant inside. This was pre-infested by placing on a leaf of the test plant 30-40 aphids on a piece of leaf excised from a culture plant (cut-leaf method). The aphids moved onto the test plant as the leaf piece desiccated. After pre-infestation, the soil of the test unit was covered with a layer of sand.
Test compounds were formulated and sprayed at 250, 50 and/or 10 ppm as described for Test A. The applications were replicated three times. After spraying of the formulated test compound, each test unit was allowed to dry for 1 h and then a black, screened cap was placed on top. The test units were held for 6 days in a growth chamber at 19-21° C. and 50-70% relative humidity. Each test unit was then visually assessed for insect mortality.

[4] = test system: rice brown planthopper (Nilaparvata lugens); assay: Test H: control of rice brown planthopper on rice plant; details: 120 h, assessed after 5 days, read-out: control efficacy: mortality; for mortality at 2 ppm: sprayed at 2 ppm; for mortality at 10 ppm: sprayed at 10 ppm
Method: (§1) For evaluating control of rice brown planthopper (Nilaparvata lugens) through contact and/or systemic means, the test unit consisted of a plastic pot containing a 13-cm-tall rice plant covered with steel wire mesh (50 mesh) supported by a wire frame. A small amount of sand was added to form a good seal between the bottom of the wire mesh, the soil surface and the top edge of the plastic pot.
(§2) Test compounds were formulated and sprayed at 10, 2 and/or 0.4 ppm, and the tests were replicated three times in a manner similar to the one described for Test A. After spraying, the test units were allowed to dry for 2 h before they were post-infested with 10 brown planthoppers (3rd instar nymphs, 7-9 days post-hatch). After 5 days, each test unit was visually assessed for insect mortality.

[5] = test system: rice green leafhopper (Nephotettix virescens); assay: Test G: control of rice green leafhopper on rice plant; details: 120 h, assessed after 5 days, read-out: control efficacy: mortality; for mortality at 10 ppm: sprayed at 10 ppm; for mortality at 50 ppm: sprayed at 50 ppm
Method: as §1, with “green leafhopper (Nephotettix virescens)” for “brown planthopper (Nilaparvata lugens)”
as §2, with “50, 10 and/or” for “10,”, “2” for “2 and/or 0.4”, “green leafhoppers” for “brown planthoppers”

[6] = test system: cotton melon aphid (Aphis gossypii); assay: Test C: control of cotton melon aphid on cotton plant, contact and/or systemic; details: for mortality at 50 ppm: sprayed at 50 ppm
Text: For evaluating control of cotton melon aphid (Aphis gossypii) through contact and/or systemic means, the test unit consisted of a small open container with a 6-7-day-old cotton plant inside. This was pre-infested with 30-40 insects on a piece of leaf according to the cut-leaf method described for Test B, and the soil of the test unit was covered with a layer of sand.
Test compounds were formulated and sprayed at 250 and/or 50 ppm as described for Test B. The applications were replicated three times. After spraying, the test units were maintained in a growth chamber and then visually rated as described for […].

COc1ccccc1-c1c([O-])[n+](Cc2cncnc2)c2ccccn2c1=O [Compound 4, 2-hydroxy-3-(2-methoxyphenyl)-4-oxo-1-(5-pyrimidinylmethyl)-4H-pyrido[1,2-a]pyrimidinium inner salt]
≥ 80%: mortality at 50 ppm [1] | mortality at 50 ppm [2]

O=c1c(-c2cc(Cl)cc(Cl)c2)c([O-])[n+](Cc2cncnc2)c2ccccn12 [Compound 16, 3-(3,5-dichlorophenyl)-2-hydroxy-4-oxo-1-(5-pyrimidinylmethyl)-4H-pyrido[1,2-a]pyrimidinium inner salt]
≥ 80%: mortality at 50 ppm [3] | mortality at 10 ppm [2] | mortality at 50 ppm [2]

O=c1c(-c2cc(C(F)(F)F)ccc2F)c([O-])[n+](Cc2cncnc2)c2ccccn12 [Compound 10, 3-[2-fluoro-5-(trifluoromethyl)phenyl]-2-hydroxy-4-oxo-1-(5-pyrimidinylmethyl)-4H-pyrido[1,2-a]pyrimidinium inner salt]
≥ 80%: mortality at 50 ppm [1] | mortality at 2 ppm [4] | mortality at 10 ppm [4] | mortality at 10 ppm [5] | mortality at 50 ppm [5] | mortality at 10 ppm [2] | mortality at 50 ppm [2] | mortality at 250 ppm [2]

O=c1c(-c2ccc(F)cc2)c([O-])[n+](Cc2cncnc2)c2ccccn12 [Compound 2, 3-(4-fluorophenyl)-2-hydroxy-4-oxo-1-(5-pyrimidinylmethyl)-4H-pyrido[1,2-a]pyrimidinium inner salt]
≥ 80%: mortality at 10 ppm [1] | mortality at 50 ppm [1] | mortality at 2 ppm [4] | mortality at 10 ppm [4] | mortality at 10 ppm [5] | mortality at 50 ppm [5] | mortality at 2 ppm [2] | mortality at 10 ppm [2] | mortality at 50 ppm [2] | mortality at 250 ppm [2]

O=c1c(-c2cccc(OC(F)(F)F)c2)c([O-])[n+](Cc2cncnc2)c2ccccn12 [Compound 7, 2-hydroxy-4-oxo-1-(5-pyrimidinylmethyl)-3-[3-(trifluoromethoxy)phenyl]-4H-pyrido[1,2-a]pyrimidinium inner salt]
≥ 80%: mortality at 2 ppm [1] | mortality at 10 ppm [1] | mortality at 50 ppm [1] | mortality at 0.4 ppm ([4]; sprayed at 0.4 ppm) | mortality at 2 ppm [4] | mortality at 10 ppm [4] | mortality at 50 ppm [6] | mortality at 2 ppm ([5]; sprayed at 2 ppm) | mortality at 10 ppm [5] | mortality at 50 ppm [5]

O=c1c(-c2cc(Cl)c(F)c(Cl)c2)c([O-])[n+](Cc2cncnc2)c2ccccn12 [Compound 17, 3-(3,5-dichloro-4-fluorophenyl)-2-hydroxy-4-oxo-1-(5-pyrimidinylmethyl)-4H-pyrido[1,2-a]pyrimidinium inner salt]
≥ 80%: mortality at 10 ppm [2] | mortality at 50 ppm [2]

Cc1cccc(-c2c([O-])[n+](Cc3cncnc3)c3ccccn3c2=O)c1 [Compound 11, 2-hydroxy-3-(3-methylphenyl)-4-oxo-1-(5-pyrimidinylmethyl)-4H-pyrido[1,2-a]pyrimidinium inner salt]
≥ 80%: mortality at 10 ppm [1] | mortality at 50 ppm [1] | mortality at 10 ppm [4] | mortality at 10 ppm [5] | mortality at 50 ppm [5] | mortality at 10 ppm [2] | mortality at 50 ppm [2]

O=c1c(-c2cccc(Br)c2)c([O-])[n+](Cc2cncnc2)c2ccccn12 [Compound 8]
≥ 80%: mortality at 50 ppm [1]

O=c1c(-c2cc(Cl)cc(C(F)(F)F)c2)c([O-])[n+](Cc2cncnc2)c2ccccn12 [Compound 15, 3-[3-chloro-5-(trifluoromethyl)phenyl]-2-hydroxy-4-oxo-1-(5-pyrimidinylmethyl)-4H-pyrido[1,2-a]pyrimidinium inner salt]
≥ 80%: mortality at 2 ppm [1] | mortality at 10 ppm [1] | mortality at 50 ppm [1] | mortality at 10 ppm [4] | mortality at 10 ppm ([3]; sprayed at 10 ppm) | mortality at 50 ppm [3] | mortality at 2 ppm [2] | mortality at 10 ppm [2] | mortality at 50 ppm [2]

COc1cccc(-c2c([O-])[n+](Cc3cncnc3)c3ccccn3c2=O)c1 [Compound 5, 2-hydroxy-3-(3-methoxyphenyl)-4-oxo-1-(5-pyrimidinylmethyl)-4H-pyrido[1,2-a]pyrimidinium inner salt]
≥ 80%: mortality at 10 ppm [1] | mortality at 50 ppm [1] | mortality at 10 ppm [2] | mortality at 50 ppm [2]

O=c1c(-c2ccccc2)c([O-])[n+](Cc2cncnc2)c2ccccn12 [Compound 1, 2-hydroxy-4-oxo-3-phenyl-1-(5-pyrimidinylmethyl)-4H-pyrido[1,2-a]pyrimidinium inner salt]
≥ 80%: mortality at 2 ppm [1] | mortality at 10 ppm [1] | mortality at 50 ppm [1] | mortality at 250 ppm ([1]; sprayed at 250 ppm) | mortality at 250 ppm ([6]; sprayed at 250 ppm) | mortality at 50 ppm [3] | mortality at 250 ppm ([3]; sprayed at 250 ppm) | mortality at 10 ppm [2] | mortality at 50 ppm [2] | mortality at 250 ppm [2]

O=c1c(-c2ccc(F)c(C(F)(F)F)c2)c([O-])[n+](Cc2cncnc2)c2ccccn12 [Compound 12, 3-[4-fluoro-3-(trifluoromethyl)phenyl]-2-hydroxy-4-oxo-1-(5-pyrimidinylmethyl)-4H-pyrido[1,2-a]pyrimidinium inner salt]
≥ 80%: mortality at 10 ppm [1] | mortality at 50 ppm [1] | mortality at 10 ppm [4] | mortality at 50 ppm [6] | mortality at 50 ppm [5] | mortality at 10 ppm [2] | mortality at 50 ppm [2]

O=c1c(-c2ccccc2F)c([O-])[n+](Cc2cncnc2)c2ccccn12 [Compound 9, 3-(2-fluorophenyl)-2-hydroxy-4-oxo-1-(5-pyrimidinylmethyl)-4H-pyrido[1,2-a]pyrimidinium inner salt]
≥ 80%: mortality at 10 ppm [1] | mortality at 50 ppm [1] | mortality at 10 ppm [4] | mortality at 50 ppm [2]

O=c1c(-c2ccc(F)cc2F)c([O-])[n+](Cc2cncnc2)c2ccccn12 [Compound 6, 3-(2,4-difluorophenyl)-2-hydroxy-4-oxo-1-(5-pyrimidinylmethyl)-4H-pyrido[1,2-a]pyrimidinium inner salt]
≥ 80%: mortality at 10 ppm [1] | mortality at 50 ppm [1]

Cc1cc(-c2ccc(C#N)cc2C)cc(-c2c([O-])[n+](Cc3cncnc3)c3ccccn3c2=O)c1 [Compound 18, 3-(4′-cyano-5,2′-dimethyl[1,1′-biphenyl]-3-yl)-2-hydroxy-4-oxo-1-(5-pyrimidinylmethyl)-4H-pyrido[1,2-a]pyrimidinium inner salt]
≥ 80%: mortality at 50 ppm [1] | mortality at 50 ppm [2]

O=c1c(-c2cccc(Cl)c2)c([O-])[n+](Cc2cncnc2)c2ccccn12 [Compound 19, 3-(3-chlorophenyl)-2-hydroxy-4-oxo-1-(5-pyrimidinylmethyl)-4H-pyrido[1,2-a]pyrimidinium inner salt]
≥ 80%: mortality at 10 ppm [1] | mortality at 50 ppm [1] | mortality at 50 ppm [3] | mortality at 10 ppm [2] | mortality at 50 ppm [2]
